One assay has as its target Fibronectin (Homo sapiens, UniProt P02751). Description: Binding affinity to fibronectin using surface plasmon resonance imaging sensor method.
Assay [1] is described as follows: Binding affinity to human recombinant von Willebrand factor A1 domain using surface plasmon resonance imaging sensor.

These results are taken from ChEMBL document CHEMBL1143919, “Sugar Chips immobilized with synthetic sulfated disaccharides of heparin/heparan sulfate partial structure” (Bioorg Med Chem Lett, 2008).

Chain of Fibronectin (P02751 whole entry, the tested form may be a part): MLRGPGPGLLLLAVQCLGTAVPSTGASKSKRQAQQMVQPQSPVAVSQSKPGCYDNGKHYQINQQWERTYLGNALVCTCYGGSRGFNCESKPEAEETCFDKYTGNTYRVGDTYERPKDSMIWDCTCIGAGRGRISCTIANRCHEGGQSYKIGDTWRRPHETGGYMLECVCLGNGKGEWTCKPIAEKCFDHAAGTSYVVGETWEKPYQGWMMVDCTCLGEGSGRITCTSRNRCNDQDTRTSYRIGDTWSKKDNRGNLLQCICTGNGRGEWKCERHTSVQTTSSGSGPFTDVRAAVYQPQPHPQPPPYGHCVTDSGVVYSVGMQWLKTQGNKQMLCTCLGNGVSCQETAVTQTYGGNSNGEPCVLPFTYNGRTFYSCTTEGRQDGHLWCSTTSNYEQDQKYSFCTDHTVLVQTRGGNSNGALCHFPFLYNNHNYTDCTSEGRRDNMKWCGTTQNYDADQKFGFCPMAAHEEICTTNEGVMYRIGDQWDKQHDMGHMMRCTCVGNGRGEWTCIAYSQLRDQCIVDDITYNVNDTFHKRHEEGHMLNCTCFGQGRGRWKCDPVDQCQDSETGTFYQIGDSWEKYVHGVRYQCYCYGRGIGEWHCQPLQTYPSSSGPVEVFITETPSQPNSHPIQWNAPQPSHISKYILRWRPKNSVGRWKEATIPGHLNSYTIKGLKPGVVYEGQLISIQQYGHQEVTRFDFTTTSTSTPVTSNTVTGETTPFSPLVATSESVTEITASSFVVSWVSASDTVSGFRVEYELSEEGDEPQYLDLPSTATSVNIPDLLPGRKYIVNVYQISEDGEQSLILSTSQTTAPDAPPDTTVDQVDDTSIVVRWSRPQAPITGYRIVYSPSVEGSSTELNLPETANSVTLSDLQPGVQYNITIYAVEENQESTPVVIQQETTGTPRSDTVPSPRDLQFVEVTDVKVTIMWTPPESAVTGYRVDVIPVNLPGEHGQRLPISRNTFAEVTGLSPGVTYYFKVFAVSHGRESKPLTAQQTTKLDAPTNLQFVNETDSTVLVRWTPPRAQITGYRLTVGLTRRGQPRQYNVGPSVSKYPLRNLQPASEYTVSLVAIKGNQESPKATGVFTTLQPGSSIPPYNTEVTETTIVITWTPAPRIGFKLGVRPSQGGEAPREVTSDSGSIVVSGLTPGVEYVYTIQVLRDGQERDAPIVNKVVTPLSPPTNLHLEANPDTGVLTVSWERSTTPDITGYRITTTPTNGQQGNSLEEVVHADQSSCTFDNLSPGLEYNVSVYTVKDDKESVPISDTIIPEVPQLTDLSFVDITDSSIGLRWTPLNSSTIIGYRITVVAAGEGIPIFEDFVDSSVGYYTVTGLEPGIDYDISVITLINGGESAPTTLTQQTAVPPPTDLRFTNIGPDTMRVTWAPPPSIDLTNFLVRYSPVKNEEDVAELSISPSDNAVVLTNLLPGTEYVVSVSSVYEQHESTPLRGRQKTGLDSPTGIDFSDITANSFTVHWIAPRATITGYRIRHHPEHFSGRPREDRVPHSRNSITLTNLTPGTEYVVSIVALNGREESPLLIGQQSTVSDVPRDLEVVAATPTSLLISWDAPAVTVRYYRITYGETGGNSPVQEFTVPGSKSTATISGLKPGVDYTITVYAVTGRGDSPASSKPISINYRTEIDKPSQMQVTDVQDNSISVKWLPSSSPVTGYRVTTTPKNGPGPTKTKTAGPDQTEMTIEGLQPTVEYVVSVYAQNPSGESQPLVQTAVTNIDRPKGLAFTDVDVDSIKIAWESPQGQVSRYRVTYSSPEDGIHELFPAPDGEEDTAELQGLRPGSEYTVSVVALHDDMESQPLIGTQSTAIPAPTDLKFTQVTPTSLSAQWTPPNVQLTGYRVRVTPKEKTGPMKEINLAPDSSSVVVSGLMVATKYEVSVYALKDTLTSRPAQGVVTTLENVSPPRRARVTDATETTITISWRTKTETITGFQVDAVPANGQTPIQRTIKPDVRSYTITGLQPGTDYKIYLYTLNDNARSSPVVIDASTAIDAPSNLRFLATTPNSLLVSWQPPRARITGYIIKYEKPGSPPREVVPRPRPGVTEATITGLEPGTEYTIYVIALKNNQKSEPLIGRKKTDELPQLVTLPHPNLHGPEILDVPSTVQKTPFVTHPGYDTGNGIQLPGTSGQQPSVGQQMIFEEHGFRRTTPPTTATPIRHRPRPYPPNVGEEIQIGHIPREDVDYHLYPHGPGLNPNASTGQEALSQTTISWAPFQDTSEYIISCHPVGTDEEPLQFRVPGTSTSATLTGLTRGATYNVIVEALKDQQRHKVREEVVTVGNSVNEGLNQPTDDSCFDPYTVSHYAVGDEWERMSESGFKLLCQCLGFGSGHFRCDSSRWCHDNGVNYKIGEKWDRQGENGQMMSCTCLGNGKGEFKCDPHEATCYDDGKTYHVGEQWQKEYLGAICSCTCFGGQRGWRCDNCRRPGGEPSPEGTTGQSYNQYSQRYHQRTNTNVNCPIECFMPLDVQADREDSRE

Consider `CO[C@H]1[C@H](O)[C@@H](NS(=O)(=O)O)[C@@H](O[C@H]2[C@H](O)[C@@H](OS(=O)(=O)O)[C@H](OC[C@@H](O)[C@@H](O)[C@H](O)[C@@H](O)CNc3cccc(NC(=O)CCCCC4CCSS4)c3)O[C@H]2C(=O)O)O[C@@H]1CO` (stereo partly drawn), for which the values for the Kd (at Fibronectin; in assay [1]) were 0.03 µM and 0.9 µM, respectively.
For the molecule `CO[C@H]1[C@H](O)[C@@H](NS(=O)(=O)O)[C@@H](O[C@H]2[C@H](O)[C@@H](O)[C@H](OC[C@@H](O)[C@@H](O)[C@H](O)[C@@H](O)CNc3cccc(NC(=O)CCCCC4CCSS4)c3)O[C@@H]2C(=O)O)O[C@@H]1COS(=O)(=O)O` (stereo partly drawn), the Kd came to 0.0065 µM on Fibronectin and 1.4 µM in assay [1].
For `CO[C@H]1[C@H](O)[C@@H](NS(=O)(=O)O)[C@@H](O[C@H]2[C@H](O)[C@@H](OS(=O)(=O)O)[C@H](OC[C@@H](O)[C@@H](O)[C@H](O)[C@@H](O)CNc3cccc(NC(=O)CCCCC4CCSS4)c3)O[C@H]2C(=O)O)O[C@@H]1COS(=O)(=O)O` (stereo partly drawn) the same measures were 0.0055 µM and 1 µM.
For `CO[C@H]1[C@H](O)[C@@H](NS(=O)(=O)O)[C@@H](O[C@H]2[C@H](O)[C@@H](O)[C@H](OC[C@@H](O)[C@@H](O)[C@H](O)[C@@H](O)CNc3cccc(NC(=O)CCCCC4CCSS4)c3)O[C@@H]2C(=O)O)O[C@@H]1CO` (stereo partly drawn), the figures for the Kd (at Fibronectin; in assay [1]) were 0.033 µM and 4.3 µM, respectively.
